Assay results as given in patent publication US20240254129A1, “HETEROCYCLIC COMPOUNDS AND USES THEREOF” (Kumquat Biosciences Inc., priority 2021, published 2024).
Read-outs that look alike come from different tables or passages of the source.

Tests used:
[1] = target: GST-tagged K-Ras mutant / His-tagged hSOS1 (Homo sapiens, UniProt P01116); assay: HTRF assay, K-Ras mutant / SOS1 interaction; type: binding; conditions: read-out: IC50 against mutant Kras
In short: (§1)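 Inhibition of wildtype or mutant K-Ras binding to hSOS1 is measured by FRET between antibody-bound Eu donor and XL665 acceptor. Protein levels are matched to the IC50 range under study. The 665/620 nm signal after ≥10 min yields IC50.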

wildtype Kras / hSOS1 = target: T1, wildtype Kras / hSOS1 (Homo sapiens, UniProt P01116); assay: HTRF assay, wildtype Kras / SOS1 interaction; type: binding; conditions: read-out: IC50 against wildtype Kras
T1 construct: made in house; host or cells: E. coli BL21 (DE3)
T1 sequence (P01116 1-188 isoform P01116-2): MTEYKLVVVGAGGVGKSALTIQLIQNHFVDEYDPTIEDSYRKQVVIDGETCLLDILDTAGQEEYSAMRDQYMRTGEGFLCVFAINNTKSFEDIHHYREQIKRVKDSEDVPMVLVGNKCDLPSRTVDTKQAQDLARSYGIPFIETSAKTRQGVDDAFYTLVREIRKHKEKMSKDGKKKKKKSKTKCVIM
In short: as §1

[2] = compound nos. 201-213, general methodology of example 5
[3] = compound nos. 102-196, general methodology of example 5

GST-tagged K-Ras mutant / His-tagged hSOS1, sequence (P01116 whole entry G12D, form open): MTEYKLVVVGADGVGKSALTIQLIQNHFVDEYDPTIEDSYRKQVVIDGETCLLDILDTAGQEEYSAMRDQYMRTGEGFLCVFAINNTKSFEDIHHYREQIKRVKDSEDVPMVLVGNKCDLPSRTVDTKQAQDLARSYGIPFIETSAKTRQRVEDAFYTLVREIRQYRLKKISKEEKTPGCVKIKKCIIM

## OC1Cc2ccccc2N(c2ccc3c(N4CC5CCC(C4)N5)nc(OCC45CCCN4CCC5)nc3c2F)C1 (centres unmarked) [Compound 538, 1-(4-(3,8-diazabicyclo-[3.2.1]octan-3-yl)-8-fluoro-2-((tetrahydro-1H-pyrrol-izin-7a(5H)-yl)methoxy)-quinazolin-7-yl)-1,2,3,4-tetrahydro-quinolin-3-ol]
[1]; compound nos. 401-703
  IC50: > 0.5 µM
Wildtype Kras / hSOS1; compound nos. 401-703
  IC50: > 0.5 µM

## CN(C)CC1(COc2nc(N3CC4CCC(C3)N4)c3ccc(-c4ccc(F)c5sc(N)nc45)c(F)c3n2)CC1 [Compound 428, 4-(4-(3,8-diazabicyclo-[3.2.1]-octan-3-yl)-2-((1-((dimethylamino)methyl)-cyclopropyl)methoxy)-8-fluoroquinazolin-7-yl)-7-fluorobenzo[d]thiazol-2-amine]
[1]; compound nos. 401-703
  IC50: > 0.5 µM
Wildtype Kras / hSOS1; compound nos. 401-703
  IC50: < 0.5 µM

## Nc1nc2c(-c3c(Cl)cc4c(N5C[C@H]6CC[C@@H](C5)N6)nc(OCC5(CN6CCCC6)CC5)nc4c3F)ccc(F)c2s1 [Compound 211, 4-(4-((1R,5S)-3,8-diaza-bicyclo[3.2.1]octan-3-yl)-6-chloro-8-fluoro-2-((1-(pyrrolidin-1-ylmethyl)-cyclopropyl)methoxy)quin-azolin-7-yl)-7-fluorobenzo-[d]thiazol-2-amine]
[1]; [2]
  IC50: < 1.5 µM
Wildtype Kras / hSOS1; [2]
  IC50: < 1.5 µM

## Nc1nc2c(-c3c(Cl)cc4c(N5CCCC6(CCNC6)C5)nc(OC[C@@]56CCCN5C[C@H](F)C6)nc4c3F)ccc(F)c2s1 (stereo partly drawn) [Compound 532, 4-(6-chloro-8-fluoro-2-(((2R,7aS)-2-fluorotetra-hydro-1H-pyrrolizin-7a(5H)-yl)methoxy)-4-(2,7-diaza-spiro[4.5]decan-7-yl)quin-azolin-7-yl)-7-fluorobenzo-[d]thiazol-2-amine]
[1]; compound nos. 401-703
  IC50: < 0.5 µM
Wildtype Kras / hSOS1; compound nos. 401-703
  IC50: > 0.5 µM

## Nc1nc2c(-c3c(Cl)cc4c(N5CC6CCC(C5)NC6)nc(OC[C@@]56CCCN5C[C@H](F)C6)nc4c3F)ccc(F)c2s1 (stereo partly drawn) [Compound 213, 4-(4-(3,6-diazabicyclo-[3.2.2]nonan-3-yl)-6-chloro-8-fluoro-2-(((2R,7aS)-2-fluorotetrahydro-1H-pyrrolizin-7a(5H)-yl)meth-oxy)quinazolin-7-yl)-7-fluorobenzo[d]thiazol-2-amine]
[1]; [2]
  IC50: < 1.5 µM
Wildtype Kras / hSOS1; [2]
  IC50: < 1.5 µM

## Oc1cc(-c2c(Cl)cc3c(N4CC5CCC(C4)N5)nc(OCC45CCCN4CCC5)nc3c2F)cc(C(F)(F)F)c1 [Compound 614, 3-(4-(3,8-diazabicyclo-[3.2.1]octan-3-yl)-6-chloro-8-fluoro-2-((tetrahydro-1H-pyrrolizin-7a(5H)-yl)meth-oxy)quinazolin-7-yl)-5-(trifluoromethyl)phenol]
[1]; compound nos. 401-703
  IC50: > 0.5 µM
Wildtype Kras / hSOS1; compound nos. 401-703
  IC50: > 0.5 µM

## Nc1nc2ccccc2n1-c1ccc2c(N3CC4CCC(C3)N4)nc(OCC34CCCN3CCC4)nc2c1F [Compound 525, 1-(4-(3,8-diazabicyclo-[3.2.1]octan-3-yl)-8-fluoro-2-((tetrahydro-1H-pyrrol-izin-7a(5H)-yl)methoxy)-quin-azolin-7-yl)-1H-benzo-[d]imidazol-2-amine]
[1]; compound nos. 401-703
  IC50: > 0.5 µM
Wildtype Kras / hSOS1; compound nos. 401-703
  IC50: > 0.5 µM

## CN1CCC[C@H]1COc1nc(N2CC3CNCC3C2)c2cc(Cl)c(-c3cccc4sc(N)nc34)c(F)c2n1 (stereo partly drawn) [Compound 144, 4-(6-chloro-8-fluoro-4-(hexahydropyrrolo[3,4-c]-pyrrol-2(1H)-yl)-2-(((S)-1-methylpyrrolidin-2-yl)meth-oxy)quinazolin-7-yl)benzo-[d]thiazol-2-amine]
[1]; [3]
  IC50: > 0.5 µM
Wildtype Kras / hSOS1; [3]
  IC50: > 0.5 µM

## CN1CCCC1CCn1nc(N2CC3CCC(C2)N3)c2ccc(-c3ccc(F)c4sc(N)nc34)c(F)c2c1=O (centres unmarked) [Compound 420, 7-(2-amino-7-fluorobenzo-[d]thiazol-4-yl)-4-(3,8-diazabicyclo[3.2.1]octan-3-yl)-8-fluoro-2-(2-(1-methyl-pyrrolidin-2-yl)ethyl)phthal-azin-1(2H)-one]
[1]; compound nos. 401-703
  IC50: > 0.5 µM
Wildtype Kras / hSOS1; compound nos. 401-703
  IC50: < 0.5 µM

## Nc1cc(-c2ccc3c(N4CC5CCC(C4)N5)nc(OCC45CCCN4CCC5)nc3c2F)c2c(Cl)cccc2n1 [Compound 498, 4-(4-(3,8-diazabicyclo-[3.2.1]octan-3-yl)-8-fluoro-2-((tetrahydro-1H-pyrrol-izin-7a(5H)-yl)methoxy)-quinazolin-7-yl)-5-chloro-quinolin-2-amine]
[1]; compound nos. 401-703
  IC50: > 0.5 µM
Wildtype Kras / hSOS1; compound nos. 401-703
  IC50: < 0.5 µM

## Nc1nc2c(-c3c(Cl)cc4c(N5CC6CCC(CC6)C5)nc(OC[C@@]56CCCN5C[C@H](F)C6)nc4c3F)ccc(F)c2s1 [Compound 690, 4-(4-(3-azabicyclo[3.2.2]-nonan-3-yl)-6-chloro-8-fluoro-2-(((2R,7aS)-2-fluorotetrahydro-1H-pyrrol-izin-7a(5H)-yl)methoxy)-quinazolin-7-yl)-7-fluoro-benzo[d]thiazol-2-amine]
[1]; compound nos. 401-703
  IC50: < 0.5 µM
Wildtype Kras / hSOS1; compound nos. 401-703
  IC50: > 0.5 µM

## CN1CCC[C@H]1COc1nc(N2CCCCC(O)C2)c2cc(Cl)c(-c3cccc4sc(N)nc34)c(F)c2n1 (stereo partly drawn) [Compound 562, 1-(7-(2-aminobenzo[d]-thiazol-4-yl)-6-chloro-8-fluoro-2-(((S)-1-methyl-pyrrolidin-2-yl)methoxy)-quinazolin-4-yl)azepan-3-ol]
[1]; compound nos. 401-703
  IC50: < 0.5 µM
Wildtype Kras / hSOS1; compound nos. 401-703
  IC50: > 0.5 µM

## CN1CCC[C@H]1COc1nc(N2CCN(C(=O)CN)CC(F)(F)C2)c2cc(Cl)c(-c3cccc4sc(N)nc34)c(F)c2n1 [Compound 141, 2-amino-1-(4-(7-(2-amino-benzo[d]thiazol-4-yl)-6-chloro-8-fluoro-2-(((S)-1-methylpyrrolidin-2-yl)meth-oxy)quinazolin-4-yl)-6,6-difluoro-1,4-diazepan-1-yl)-ethan-1-one]
[1]; [3]
  IC50: > 0.5 µM
Wildtype Kras / hSOS1; [3]
  IC50: < 0.5 µM

## Nc1cc(-c2c(Cl)cc3c(N4CC5CCC(C4)N5)nc(OCC45CCCN4CCC5)nc3c2F)c2ccccc2c1 [Compound 564, 4-(4-(3,8-diazabicyclo-[3.2.1]octan-3-yl)-6-chloro-8-fluoro-2-((tetrahydro-1H-pyrrolizin-7a(5H)-yl)meth-oxy)quinazolin-7-yl)naph-thalen-2-amine]
[1]; compound nos. 401-703
  IC50: > 0.5 µM
Wildtype Kras / hSOS1; compound nos. 401-703
  IC50: > 0.5 µM

## Nc1nc2c(-c3c(Cl)cc4c(N5CC6CCCC(C5)NC6)nc(OC[C@@]56CCCN5C[C@H](F)C6)nc4c3F)ccc(F)c2s1 (stereo partly drawn) [Compound 512, 4-(4-(3,9-diazabicyclo-[3.3.2]decan-3-yl)-6-chloro-8-fluoro-2-(((2R,7aS)-2-fluorotetrahydro-1H-pyrrol-izin-7a(5H)-yl)methoxy)-quinazolin-7-yl)-7-fluoro-benzo[d]thiazol-2-amine]
[1]; compound nos. 401-703
  IC50: < 0.5 µM
Wildtype Kras / hSOS1; compound nos. 401-703
  IC50: > 0.5 µM

## CN1CCC[C@H]1COc1nc(N2CCNCC(F)(F)C2)c2cc(Cl)c(-c3cccc4nc(N)n(C)c34)c(F)c2n1 [Compound 186, 7-(6-chloro-4-(6,6-difluoro-1,4-diazepan-1-yl)-8-fluoro-2-(((S)-1-methylpyrrolidin-2-yl)methoxy)quinazolin-7-yl)-1-methyl-1H-benzo[d]-imidazol-2-amine]
[1]; [3]
  IC50: > 0.5 µM
Wildtype Kras / hSOS1; [3]
  IC50: > 0.5 µM

## Cc1ccc2cnn(CC#N)c2c1-c1c(Cl)cc2c(N3CC4CCC(C3)N4)nc(OC[C@@]34CCCN3C[C@H](F)C4)nc2c1F [Compound 549, 2-(7-(4-(3,8-diazabicyclo-[3.2.1]octan-3-yl)-6-chloro-8-fluoro-2-(((2R,7aS)-2-fluorotetrahydro-1H-pyrrol-izin-7a(5H)-yl)methoxy)-quinazolin-7-yl)-6-methyl-1H-indazol-1-yl)acetonitrile]
[1]; compound nos. 401-703
  IC50: > 0.5 µM
Wildtype Kras / hSOS1; compound nos. 401-703
  IC50: > 0.5 µM

## Nc1nc2c(-c3c(Cl)cc4c(N5CC6CCC(C5)N6)nc(OC[C@@]56CCCN5C[C@H](F)C6)nc4c3F)cccc2o1 [Compound 588, 4-(4-(3,8-diazabicyclo-[3.2.1]-octan-3-yl)-6-chloro-8-fluoro-2-(((2R,7aS)-2-fluorotetrahydro-1H-pyrrol-izin-7a(5H)-yl)methoxy)-quinazolin-7-yl)benzo[d]-oxazol-2-amine]
[1]; compound nos. 401-703
  IC50: < 0.5 µM
Wildtype Kras / hSOS1; compound nos. 401-703
  IC50: > 0.5 µM

## CN1CCC[C@H]1COc1nc(N2CCCS(=O)(=O)CC2)c2cc(Cl)c(-c3cccc4sc(N)nc34)c(F)c2n1 [Compound 475, 4-(7-(2-aminobenzo[d]-thiazol-4-yl)-6-chloro-8-fluoro-2-(((S)-1-methyl-pyrrolidin-2-yl)methoxy)-quinazolin-4-yl)-1,4-thiazepane 1,1-dioxide]
[1]; compound nos. 401-703
  IC50: < 0.5 µM
Wildtype Kras / hSOS1; compound nos. 401-703
  IC50: < 0.5 µM

## Nc1nc2c(-c3c(Cl)cc4c(N5CC6CCC(C5)N6)nc(OCC56CCCN5CCC6)nc4c3F)cc(F)cc2s1 [Compound 542, 4-(4-(3,8-diazabicyclo-[3.2.1]octan-3-yl)-6-chloro-8-fluoro-2-((tetrahydro-1H-pyrrolizin-7a(5H)-yl)meth-oxy)quinazolin-7-yl)-6-fluorobenzo[d]thiazol-2-amine]
[1]; compound nos. 401-703
  IC50: < 0.5 µM
Wildtype Kras / hSOS1; compound nos. 401-703
  IC50: > 0.5 µM

## O=C(c1cc(O)cc2ccccc12)N1CCc2nc(OCC34CCCN3CCC4)nc(N3CC4CCC(C3)N4)c2CC1 [Compound 694, (4-(3,8-diazabicyclo[3.2.1]-octan-3-yl)-2-((tetrahydro-1H-pyrrolizin-7a(5H)-yl)-methoxy)-5,6,8,9-tetrahydro-7H-pyrimido[4,5-d]azepin-7-yl)(3-hydroxynaphthalen-1-yl)methanone]
[1]; compound nos. 401-703
  IC50: > 0.5 µM
Wildtype Kras / hSOS1; compound nos. 401-703
  IC50: > 0.5 µM

## Nc1nc2c(-c3c(Cl)cc4c(N5CCC[C@H](N)CC5)nc(OC[C@@]56CCCN5C[C@H](F)C6)nc4c3F)ccc(F)c2s1 [Compound 600, 4-(4-((S)-4-aminoazepan-1-yl)-6-chloro-8-fluoro-2-(((2R,7aS)-2-fluorotetra-hydro-1H-pyrrolizin-7a(5H)-yl)methoxy)quinazolin-7-yl)-7-fluorobenzo[d]thiazol-2-amine]
[1]; compound nos. 401-703
  IC50: < 0.5 µM
Wildtype Kras / hSOS1; compound nos. 401-703
  IC50: > 0.5 µM
